Data from patent publication US20230227427A1, “IL-17A MODULATORS” (SANOFI, priority 2010, published 2023).

Target: T1, human recombinant IL-17A (Homo sapiens, UniProt Q16552)
T1 construct: purchased R&D Systems 7955-IL/CF
T1 sequence (Q16552 24-155): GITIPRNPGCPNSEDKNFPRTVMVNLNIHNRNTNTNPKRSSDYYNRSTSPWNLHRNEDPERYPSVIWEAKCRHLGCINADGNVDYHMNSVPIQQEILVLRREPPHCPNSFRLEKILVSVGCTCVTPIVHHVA
Assay: IL-17A AlphaLISA assay (block binding of IL-17A to its receptor IL-17RA)
Settings: compounds pre-incubated with the IL-17A for 30 min (indicated by * in Table A); read-out: AlphaLISA pIC50 (converted)
How it was run: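 Compounds pre-incubated 24 h at RT (30 min where flagged) with human IL-17A (7.5 nM stock) before IL-17RA/Fc (5 nM stock), 90 min. Read by AlphaLISA via anti-Fc acceptor and biotin anti-IL-17A/streptavidin donor beads, 680/615 nm. 4-parameter fit; DMSO and 6 μM reference inhibitor as controls; pIC50.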

Compound	IC50
Cc1cc(-c2ccc(NC(=O)[C@@H](NC(=O)c3ccnn3C)[C@H]3CC[C@H](C)CC3)nc2)c(C)cn1 [Example 153, N—((S)-2-((2′,5′-dimethyl-[3,4′-bipyridin]-6-yl)amino)-1-((1r,4S)-4-methylcyclohexyl)-2-oxoethyl)-1-methyl-1H-pyrazole-5-carboxamide]	398 nM
CCn1nccc1C(=O)N[C@H](C(=O)Nc1ccc(-c2c(C)cnn2C)nc1)[C@H]1CC[C@H](C)CC1 [Example 154, N—((S)-2-((6-(1,4-dimethyl-1H-pyrazol-5-yl)pyridin-3-yl)amino)-1-((1r,4S)-4-methylcyclohexyl)-2-oxoethyl)-1-ethyl-1H-pyrazole-5-carboxamide]	251 nM
CCc1nocc1C(=O)N[C@H](C(=O)Nc1ccc(-c2c(C)cnn2C)nc1)[C@H]1CC[C@H](C)CC1 [Example 155, N—((S)-2-((6-(1,4-dimethyl-1H-pyrazol-5-yl)pyridin-3-yl)amino)-1-((1r,4S)-4-methylcyclohexyl)-2-oxoethyl)-3-ethylisoxazole-4-carboxamide]	100 nM
Cc1cnn(C)c1-c1ncc(NC(=O)[C@@H](NC(=O)c2ccnn2C)[C@H]2CC[C@H](C)CC2)cn1 [Example 156, N—((S)-2-((2-(1,4-dimethyl-1H-pyrazol-5-yl)pyrimidin-5-yl)amino)-1-((1r,4S)-4-methylcyclohexyl)-2-oxoethyl)-1-methyl-1H-pyrazole-5-carboxamide]	398 nM
CCn1nccc1C(=O)N[C@H](C(=O)Nc1ccc(-c2c(C)nnn2C)cn1)[C@H]1CC[C@H](C)CC1 [Example 159, N—((S)-2-((5-(1,4-dimethyl-1H-1,2,3-triazol-5-yl)pyridin-2-yl)amino)-1-((1r,4S)-4-methylcyclohexyl)-2-oxoethyl)-1-ethyl-1H-pyrazole-5-carboxamide]	100 nM
Cc1nocc1C(=O)N[C@H](C(=O)Nc1ccc(-c2c(C)nnn2C)cn1)[C@H]1CC[C@H](C)CC1 [Example 160, N—((S)-2-((5-(1,4-dimethyl-1H-1,2,3-triazol-5-yl)pyridin-2-yl)amino)-1-((1r,4S)-4-methylcyclohexyl)-2-oxoethyl)-3-methylisoxazole-4-carboxamide]	200 nM
Cc1nnn(C2CC2)c1-c1ccc(NC(=O)[C@@H](NC(=O)c2ccnn2C)C2CCCCCC2)nc1 [Example 161, (S)—N-(1-cycloheptyl-2-((5-(1-cyclopropyl-4-methyl-1H-1,2,3-triazol-5-yl)pyridin-2-yl)amino)-2-oxoethyl)-1-methyl-1H-pyrazole-5-carboxamide]	200 nM

The remaining lines, values ahead:

IC50	Compound
251 nM	CCn1nnc(C)c1-c1ccc(NC(=O)[C@@H](NC(=O)c2ccnn2C)C2CCCCCC2)nc1 [Example 157, (S)—N-(1-cycloheptyl-2-((5-(1-ethyl-4-methyl-1H-1,2,3-triazol-5-yl)pyridin-2-yl)amino)-2-oxoethyl)-1-methyl-1H-pyrazole-5-carboxamide]
631 nM	Cc1noc(C)c1-c1cnc(NC(=O)[C@@H](NC(=O)c2ccnn2C)C2CCCCCC2)cn1 [Example 158, (S)—N-(1-cycloheptyl-2-((5-(3,5-dimethylisoxazol-4-yl)pyrazin-2-yl)amino)-2-oxoethyl)-1-methyl-1H-pyrazole-5-carboxamide]
200 nM	Cc1noc(C)c1-c1cnc(NC(=O)[C@@H](NC(=O)c2ccnn2C)C2CCCCCC2)c(F)c1 [Example 162, (S)—N-(1-cycloheptyl-2-((5-(3,5-dimethylisoxazol-4-yl)-3-fluoropyridin-2-yl)amino)-2-oxoethyl)-1-methyl-1H-pyrazole-5-carboxamide]
63.1 nM	CCn1nccc1C(=O)N[C@H](C(=O)Nc1ncc(-c2c(C)noc2C)cc1F)C1CCCCCC1 [Example 163, (S)—N-(1-cycloheptyl-2-((5-(3,5-dimethylisoxazol-4-yl)-3-fluoropyridin-2-yl)amino)-2-oxoethyl)-1-ethyl-1H-pyrazole-5-carboxamide]
